Here are results for 26 compounds from patent US4959363A, “Quinolonecarboxamide compounds, their preparation and use as antivirals” (Sterling Drug Inc., priority 1989, dated 1990).

SMILES strings stand for the structures.

A short description of data set [1]: In vitro maximum tolerated dose (MTL), Vero cells. Type of data set: cell-based, African Green Monkey. Conditions: monkey, In Vitro.
On the set-up of data set [2]: species or system albino mice. Conditions: mouse.

Take `NC(=O)c1cn(-c2ccccc2)c2cc(-c3ccncc3)ccc2c1=O` [Example 21, 1,4-Dihydro-4-oxo-1-phenyl-7-(4-pyridinyl)-3-quinolinecarboxamide]: in data set [1] (vero cells), the MNTC at 72 h came to 6.25 µg/mL.

Take `CCCCCn1cc(C(N)=O)c(=O)c2ccc(-c3ccncc3)cc21` [Example 26, 1,4-Dihydro-4-oxo-1-pentyl-7-(4-pyridinyl)-3-quinolinecarboxamide]: the MNTC at 72 h in data set [1] (Vero cells) stood at 6.2 µg/mL. For the compound `CCn1cc(C(N)=O)c(=O)c2ccc(-c3cc(C)nc(C)c3)cc21` [Example 7, 1-Ethyl-1,4-dihydro-4-oxo-7-(2,6-dimethyl-4-pyridinyl)-3quinolinecarboxamide], the MNTC at 72 h in data set [1] (vero cells) stood at 12.5 µg/mL. The “In Vivo MTL (Maximum tolerated dose)” value in data set [2] came out at 25. As for `CCn1cc(C(=O)NN)c(=O)c2ccc(-c3ccncc3)cc21` [Example 29, 1-Ethyl-1,4-dihydro-4-oxo-7-(4-pyridinyl)-3-quinolinecarboxylic acid hydrazide], the MNTC at 72 h in data set [1] (vero cells) stood at 50 µg/mL. Moreover, the “In Vivo MTL (Maximum tolerated dose)” value in data set [2] is reported as 100. For `CCn1cc(C(N)=O)c(=O)c2ccc(-c3cc(C)no3)cc21` [Example 23d, 1-Ethyl-1,4-dihydro-7-(3-methyl-5-isoxazolyl)-4-oxo-3-quinolinecarboxamide], the MNTC at 72 h in data set [1] (vero cells) was > 100 µg/mL. Further, the “In Vivo MTL (Maximum tolerated dose)” value in data set [2] is > 200.

`Cc1ccc(-n2cc(C(N)=O)c(=O)c3ccc(-c4ccncc4)cc32)cc1C` [Example 13, 1,4-Dihydro-1-(3,4-dimethylphenyl)-4-oxo-7-(4-pyridinyl)-3-quinolinecarboxamide]: in data set [1] (vero cells), the MNTC at 72 h was > 100 µg/mL.

Take `Cn1cc(C(N)=O)c(=O)c2ccc(-c3ccncc3)cc21` [Example 16, 1,4-Dihydro-1-methyl-4-oxo-7-(4-pyridinyl)-3-quinolinecarboxamide]: the MNTC at 72 h in data set [1] (vero cells) is > 25 µg/mL. Besides, the “In Vivo MTL (Maximum tolerated dose)” value in data set [2] was 25.

Regarding `O=C(NCN1CCOCC1)c1cn(-c2ccc(F)cc2)c2cc(-c3ccncc3)ccc2c1=O` [Example 4, N-(4-Morpholinylmethyl)-1-(4-fluorophenyl)-1,4-dihydro-4-oxo-7-(4-pyridinyl)-3-quinolinecarboxamide], the MNTC at 72 h in data set [1] (vero cells) is > 12.5 µg/mL. Still for that read-out and setting: in the case of `CC(C)(C)c1ccc(-n2cc(C(N)=O)c(=O)c3ccc(-c4ccncc4)cc32)cc1` [Example 9, 1-[4-(1,1-Dimethylethyl)phenyl]-1,4-dihydro-4-oxo-7-(4-pyridinyl)-3-quinolinecarboxamide] it was > 25 µg/mL. As to `NC(=O)c1cn(-c2ccccc2F)c2cc(-c3ccncc3)ccc2c1=O` [Example 34, 1,4-Dihydro-1-(2-fluorophenyl)-7-(4-pyridinyl)-4-oxo-3quinolinecarboxamide], in data set [1] (vero cells), the MNTC at 72 h was 1.6 µg/mL. The “In Vivo MTL (Maximum tolerated dose)” value in data set [2] was 100. The compound `NC(=O)c1cn(-c2ccc(F)cc2)c2cc(-c3ccccc3)ccc2c1=O` [Example 44, 1,4-Dihydro-1-(4-fluorophenyl)-4-oxo-7-phenyl-3-quinolinecarboxamide] had an MNTC at 72 h in data set [1] (vero cells) of 12.5 µg/mL. In addition, in data set [2], the “In Vivo MTL (Maximum tolerated dose)” value is > 200. On the same counts, the results for `CCn1cc(C(=O)NN)c(=O)c2ccc(-c3ccccc3)cc21` [Example 36, 1-Ethyl-1,4-dihydro-4-oxo-7-phenyl-3-quinolinecarboxylic acid hydrazide] are 25 µg/mL and > 200. Turning to `Cc1ccc(-n2cc(C(N)=O)c(=O)c3ccc(-c4ccncc4)cc32)cc1` [Example 33, 1,4-Dihydro-1-(4-methylphenyl)-7-(4-pyridinyl)-4-oxo-3quinolinecarboxamide], the MNTC at 72 h in data set [1] (vero cells) is > 25 µg/mL. The “In Vivo MTL (Maximum tolerated dose)” value in data set [2] was 50.

As to `O=C(NCN1CCCCC1)c1cn(-c2ccc(F)cc2)c2cc(-c3ccncc3)ccc2c1=O` [Example 5, N-(1-Piperidinylmethyl)-1-(4-fluorophenyl)-1,4-dihydro-4-oxo-7-(4-pyridinyl)-3-quinolinecarboxamide], the MNTC at 72 h in data set [1] (vero cells) was > 12.5 µg/mL.

With `Cc1cc(-c2ccc3c(=O)c(C(N)=O)cn(-c4ccc(F)cc4)c3c2)on1` [Example 22f], the MNTC at 72 h in data set [1] (vero cells) is > 100 µg/mL. Besides, the “In Vivo MTL (Maximum tolerated dose)” value in data set [2] is recorded as > 200.

Compound `CCn1cc(C(N)=O)c(=O)c2ccc(-c3ccno3)cc21` [Example 24c, 1-Ethyl-1,4-dihydro-7-(5-isoxazolyl)-4-oxo-3-quinolinecarboxamide] had an MNTC at 72 h in data set [1] (vero cells) of 12.5 µg/mL. For the same compound, the “In Vivo MTL (Maximum tolerated dose)” value in data set [2] was > 200. `CCn1cc(C(N)=O)c(=O)c2cc(F)c(-c3ccncc3)cc21` [Example 25, 1-Ethyl-6-fluoro-1,4-dihydro-4-oxo-7-(4-pyridinyl)-3quinolinecarboxamide]: in data set [1] (vero cells), the MNTC at 72 h is > 100 µg/mL.

In turn, `CCn1cc(C(N)=O)c(=O)c2ccc(-c3cccnc3)cc21` [Example 27b, 1-Ethyl-1,4-dihydro-4-oxo-7-(3-pyridinyl)-3-quinolinecarboxamide] came in with an MNTC at 72 h in data set [1] (vero cells) of 50 µg/mL. Further, the “In Vivo MTL (Maximum tolerated dose)” value in data set [2] was determined as 100.

As for `NC(=O)c1c(O)n(-c2ccc(F)cc2)c2cc(-c3ccncc3)ccc2c1=O` [Example 47e, 1,4-Dihydro-1-(4-fluorophenyl)-2-hydroxy-7-(4-pyridinyl)4-oxo-3-quinolinecarboxamide], in data set [1] (vero cells), the MNTC at 72 h was > 100 µg/mL. In turn, `NC(=O)c1cn(-c2ccc(F)cc2F)c2cc(-c3ccncc3)ccc2c1=O` [Example 15, 1-(2,4-Difluorophenyl)-1,4-dihydro-4-oxo-7-(4-pyridinyl)-3-quinolinecarboxamide] displayed an MNTC at 72 h in data set [1] (vero cells) of 3.1 µg/mL. Further, in data set [2], the “In Vivo MTL (Maximum tolerated dose)” value is < 25. As for `NC(=O)c1cn(-c2ccc(C(F)(F)F)cc2)c2cc(-c3ccncc3)ccc2c1=O` [Example 35, 1,4-Dihydro-7-(4-pyridinyl)-1-(4-trifluoromethylphenyl)-4-oxo-3-quinolinecarboxamide], the MNTC at 72 h in data set [1] (vero cells) was > 100 µg/mL. In addition, in data set [2], the “In Vivo MTL (Maximum tolerated dose)” value was determined as 50.

In the case of `CCn1cc(C(N)=O)c(=O)c2ccc(-c3ccccn3)cc21` [Example 20, 1-Ethyl-1,4-dihydro-4-oxo-7-(2-pyridinyl)-3-quinolinecarboxamide], the MNTC at 72 h in data set [1] (vero cells) was determined as 25 µg/mL. Also, the “In Vivo MTL (Maximum tolerated dose)” value in data set [2] is on record as 100. For the compound `CCn1c(N)c(C(N)=O)c(=O)c2ccc(-c3ccncc3)cc21` [Example 40b, 2-Amino-1,4-dihydro-1-ethyl-4-oxo-7-(4-pyridinyl)-3quinolinecarboxamide], in data set [1] (vero cells), the MNTC at 72 h is > 12.5 µg/mL. Moreover, the “In Vivo MTL (Maximum tolerated dose)” value in data set [2] was > 100. Compound `CCCCn1cc(C(N)=O)c(=O)c2ccc(-c3ccncc3)cc21` [Example 17, 1-Butyl-1,4-dihydro-4-oxo-7-(4-pyridinyl)-3-quinolinecarboxamide] returned an MNTC at 72 h in data set [1] (vero cells) of 6.2 µg/mL. Besides, in data set [2], the “In Vivo MTL (Maximum tolerated dose)” value was 50. `CCCn1cc(C(N)=O)c(=O)c2ccc(-c3ccncc3)cc21` [Example 18, 1,4-Dihydro-4-oxo-1-propyl-7-(4-pyridinyl)-3-quinolinecarboxamide]: the MNTC at 72 h in data set [1] (vero cells) was 6.25 µg/mL. For the compound `C=CCn1cc(C(N)=O)c(=O)c2ccc(-c3ccncc3)cc21` [Example 19, 1,4-Dihydro-4-oxo-1-(2-propenyl)-7-(4-pyridinyl)-3-quinolinecarboxamide], the MNTC at 72 h in data set [1] (vero cells) was 6.25 µg/mL. Also, the “In Vivo MTL (Maximum tolerated dose)” value in data set [2] was < 50.
